Assay results taken from patent EP0542497A1, “Heterocyclic compounds” (THE WELLCOME FOUNDATION LIMITED, priority 1991, dated 1993).
Where a name gives a salt, the structure may show the parent alone.

Key:
[1] = biological target: T1, DHFR (Candida albicans, UniProt P22906); experiment: biochemical; conditions: C.albicans enzyme; read-out: DHFR I50 C.albicans
T1 sequence (P22906 1-192): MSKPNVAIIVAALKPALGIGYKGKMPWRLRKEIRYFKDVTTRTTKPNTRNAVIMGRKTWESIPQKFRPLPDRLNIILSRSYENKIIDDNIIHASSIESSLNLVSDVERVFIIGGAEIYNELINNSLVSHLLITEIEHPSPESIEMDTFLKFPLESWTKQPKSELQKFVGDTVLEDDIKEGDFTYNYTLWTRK

[2] = biological target: T2, human dihydrofolate reductase (Homo sapiens, UniProt P00374); experiment: DHFR I50, human enzyme; type: biochemical
T2 sequence (P00374 1-187): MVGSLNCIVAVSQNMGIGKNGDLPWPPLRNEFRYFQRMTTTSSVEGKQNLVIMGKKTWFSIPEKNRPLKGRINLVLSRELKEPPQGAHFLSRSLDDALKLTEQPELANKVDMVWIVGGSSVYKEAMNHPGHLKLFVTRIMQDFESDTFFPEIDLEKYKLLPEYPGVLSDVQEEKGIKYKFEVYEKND

[3] = test system: CCRF-CEM T cells; experiment: Cytotoxicity in cell culture (inhibition of cell growth); type: cell-based; conditions: human line, continuous exposure 72 hours
Description: (§1) The cytotoxic effects of various compounds were measured by the inhibition of mammalian cell growth in culture. Cell lines were grown in RPMI-1640 media prepared without folic acid but supplemented with 10nM calcium leucovorin, 25mM HEPES and 10% dialysed fetal bovine serum. In the case of human medulloblastoma cells (Daoy), the media (containing undialysed 10% fetal bovine serum) was pretreated with the enzyme thymidine phosphorylase (20 units/ml for 30 mins. at 37°C) to remove endogenous thymidine. Cells were seeded into 96 well microtiter plates (at densities determined to give log phase growth of control cells at the end of the assay) in 150µl of medium and grown at 37°C in a humidified incubator at 6% CO₂ for 24 hours. Compounds were prepared in media at four times the highest concentration to be tested; two-fold serial dilutions were made, and compounds were added to cells. […] The EC₅₀, defined as the concentration of compound required to reduce growth to 50% of the control, was determined from a plot of per cent inhibition versus log concentration. Cells were continuously exposed to inhibitor for 72 hours.

[4] = test system: D98 bone marrow cells; experiment: as above; type: cell-based; conditions: human line, continuous exposure 72 hours
Description: as §1

[5] = test system: Daoy medulloblastoma; experiment: as above; type: cell-based; conditions: human line, continuous exposure 72 hours, medium pretreated with thymidine phosphorylase
Description: as §1

[6] = test system: Ehrlich ascites carcinoma; experiment: as above; type: cell-based; conditions: mouse line, continuous exposure 72 hours
Description: as §1

[7] = test system: GC3C1 colon carcinoma; experiment: as above; type: cell-based; conditions: GC3/C1, human line, continuous exposure 72 hours
Description: as §1

[8] = test system: HCT8 colon adenocarcinoma; experiment: as above; type: cell-based; conditions: HCT-8, human line, continuous exposure 72 hours
Description: as §1

[9] = test system: KB3-1 epidermoid carcinoma; experiment: as above; type: cell-based; conditions: KB 3-1, human line, continuous exposure 72 hours
Description: as §1

[10] = test system: L cells (derived from connective tissue); experiment: as above; type: cell-based; conditions: mouse line, continuous exposure 72 hours
Description: as §1

[11] = test system: MCF7 breast adenocarcinoma; experiment: as above; type: cell-based; conditions: human line, continuous exposure 72 hours
Description: as §1

[12] = test system: P388 lymphoid neoplasm; experiment: as above; type: cell-based; conditions: mouse line, continuous exposure 72 hours
Description: as §1

[13] = test system: S180 sarcoma; experiment: as above; type: cell-based; conditions: S-180, mouse line, continuous exposure 72 hours
Description: as §1

[14] = Brain distribution in mice (brain and plasma concentrations by HPLC); type: in vivo; conditions: female CD1 mice, 30 or 40 minutes after dose; Compound 1 17mg/kg i.v., Compound 2 10mg/kg i.v., piritrexim 200mg/kg i.p., trimetrexate 100mg/kg i.p.; average of several experiments
Description: Female CD1 mice were dosed with Compound 1 (17mg/kg, i.v.), Compound 2 (10mg/kg, i.v.), piritrexim (200mg/kg,i.p.) or trimetrexate (100mg/kg, i.p.). Brain and plasma samples were collected 30 or 40 minutes later. The drugs were extracted from the samples, and their concentrations were determined using HPLC. The numbers represent the average of several experiments.

## CCCC(CC)n1ccc2c3c(N)nc(N)nc3ccc21 (stereo not drawn) [Compound 3, 1,3-Diamino-7-(1-ethylbutyl)-7H-pyrrolo[3,2-f]quinazoline]
[1]
  IC50: 2 nM
[2]
  IC50: < 1 nM

## CCCC(CCC)n1ccc2c3c(N)nc(N)nc3ccc21 [Compound 4, 1,3-Diamino-7-(1-propylbutyl)-7H-pyrrolo[3,2-f]quinazoline hydrochloride]
[1]
  IC50: < 1 nM
[2]
  IC50: < 2 nM

## CCc1cc2c3c(N)nc(N)nc3ccc2n1C(CC)CC [Compound 6, 1,3-Diamino-8-ethyl-7-(1-ethylpropyl)-7H-pyrrolo(3,2-f)quinazoline]
[1]
  IC50: < 1 nM
[2]
  IC50: < 1 nM

## CCC(C)n1ccc2c3c(N)nc(N)nc3ccc21 (stereo not drawn) [Compound 7a, 1,3-diamino-7-sec-butyl-7H-pyrrolo(3,2-f)quinazoline]
[1]
  IC50: 10 nM
[2]
  IC50: 18 nM

## CCCC(C)n1ccc2c3c(N)nc(N)nc3ccc21 (stereo not drawn) [Compound 7b, 1,3-diamino-7-(1-methylbutyl)-7H-pyrrolo(3,2-f)quinazoline]
[1]
  IC50: 7 nM
[2]
  IC50: 11 nM

## CCC(C(C)C)n1ccc2c3c(N)nc(N)nc3ccc21 (stereo not drawn) [Compound 7c, 1,3-diamino-7-(1-ethyl-2-methylpropyl)-7H-pyrrolo(3,2-f)quinazoline]
[1]
  IC50: 3 nM
[2]
  IC50: < 2 nM

## CC(C)n1ccc2c3c(N)nc(N)nc3ccc21 [Compound 7d, 1,3-diamino-7-isopropyl-7H-pyrrolo(3,2-f)quinazoline]
[1]
  IC50: 35 nM
[2]
  IC50: 48 nM

## COCC(COC)n1ccc2c3c(N)nc(N)nc3ccc21 [Compound 7e, 1,3-diamino-7-(2-methoxy-1-methoxymethyl)ethyl-7H-pyrrolo(3,2-f)quinazoline]
[1]
  IC50: 8.9 nM
[2]
  IC50: 8.4 nM

## Nc1nc(N)c2c(ccc3c2ccn3C2CCCCC2)n1 [Compound 7f, 1,3-diamino-7-cyclohexyl-7H-pyrrolo(3,2-f)quinazoline]
[1]
  IC50: 3 nM
[2]
  IC50: 44 nM

## Nc1nc(N)c2c(ccc3c2ccn3C2C=CCCC2)n1 (stereo not drawn) [Compound 7g, 1,3-diamino-7-(2-cyclohexen-1-yl)-7H-pyrrolo(3,2-f)quinazoline]
[1]
  IC50: 6 nM
[2]
  IC50: 33 nM

## Cc1cc2c3c(N)nc(N)nc3ccc2n1C(C)C [Compound 8a, 1,3-diamino-7-isopropyl-8-methyl-7H-pyrrolo(3,2-f)quinazoline]
[1]
  IC50: 4 nM
[2]
  IC50: 9 nM

## CCC(CC)n1c(COC)cc2c3c(N)nc(N)nc3ccc21 [Compound 9a, 1,3-diamino-7-(1-ethylpropyl)-8-(methoxymethyl)-7H-pyrrolo (3,2-f)quinazoline]
[1]
  IC50: 4.1 nM
[2]
  IC50: 3.3 nM

## CCCc1cc2c3c(N)nc(N)nc3ccc2n1C(CC)CC [Compound 9b, 1,3-diamino-7-(1-ethylpropyl)-8-propyl-7H-pyrrolo(3,2-f)quinazoline]
[1]
  IC50: 1.8 nM
[2]
  IC50: 1.3 nM

## CC(C)n1c(C(C)(C)C)cc2c3c(N)nc(N)nc3ccc21 [Compound 9c, 1,3-diamino-8-tert-butyl-7-isopropyl-7H-pyrrolo(3,2-f)quinazoline]
[1]
  IC50: < 1 nM
[2]
  IC50: < 1 nM

## CCC(CC)n1c(C(C)C)cc2c3c(N)nc(N)nc3ccc21 [Compound 9d, 1,3-diamino-7-(1-ethylpropyl)-8-isopropyl-7H-pyrrolo(3,2-f)quinazoline]
[1]
  IC50: < 1 nM
[2]
  IC50: < 1 nM

## CCc1cc2c3c(N)nc(N)nc3ccc2n1C(C)CC (stereo not drawn) [Compound 9e, 1,3-diamino-8-ethyl-7-sec-butyl-7H-pyrrolo(3,2-f)quinazoline]
[1]
  IC50: < 1 nM
[2]
  IC50: < 1 nM

## CCC(CC)n1c(CCCCl)cc2c3c(N)nc(N)nc3ccc21 [Compound 9f, 1,3-diamino-8-(3-chloropropyl)-7-(1-ethylpropyl)-7H-pyrrolo(3,2-f)quinazoline]
[1]
  IC50: 4.3 nM
[2]
  IC50: < 1 nM

## CCCCc1cc2c3c(N)nc(N)nc3ccc2n1C(C)(C)C [Compound 10a, 1,3-diamino-8-butyl-7-tert-butyl-7H-pyrrolo(3,2-f)quinazoline]
[1]
  IC50: 7 nM

## CCC(C)(C)n1c(C)cc2c3c(N)nc(N)nc3ccc21 [Compound 10b, 1,3-diamino-7-(1,1-dimethylpropyl)-8-methyl-7H-pyrrolo(3,2-f)quinazoline]
[1]
  IC50: < 1 nM
[2]
  IC50: < 1 nM

## CN(Cc1cnc2nc(N)nc(N)c2n1)c1ccc(C(=O)N[C@@H](CCC(=O)O)C(=O)O)cc1 [Methotrexate, N-[4[[(2,4-diamino-6-pteridinyl)methyl]methylamino]benzoyl]-L-glutamic acid, reference compound]
[3]
  EC50: 1.9 nM
[4]
  EC50: 47 nM
[5]
  EC50: 21 nM
[6]
  EC50: 8.5 nM
[7]
  EC50: 12 nM
[8]
  EC50: 7.3 nM
[9]
  EC50: 20 nM
[10]
  EC50: 75 nM
[11]
  EC50: 12 nM
[12]
  EC50: 2.7 nM
[13]
  EC50: 18.7 nM

## COc1ccc(OC)c(Cc2cnc3nc(N)nc(N)c3c2C)c1 [Piritrexim, 2,4-diamino-6(2,5-dimethoxybenzyl)5-methylpyrido(2,3-d)pyrimidine, reference compound]
[3]
  EC50: 15 nM
[4]
  EC50: 195 nM
[5]
  EC50: 48 nM
[6]
  EC50: 4 nM
[7]
  EC50: 7.6 nM
[8]
  EC50: 1.3 nM
[9]
  EC50: 340 nM
[10]
  EC50: 5.2 nM
[11]
  EC50: 175 nM
[12]
  EC50: 23 nM
[13]
  EC50: 10 nM
[14]
  Tissue concentration brain: 2.3 µg/g
  Tissue concentration plasma: 4.2 µg/mL

## COc1cc(NCc2ccc3nc(N)nc(N)c3c2C)cc(OC)c1OC [Trimetrexate, 5-methyl-6-[[(3,4,5-trimethoxyphenyl)amino]methyl]-2,4-quinazolinediamine, reference compound]
[14]
  Tissue concentration brain: 1.4 µg/g
  Tissue concentration plasma: 13 µg/mL
